Experimental data as given in patent EP0532097A1, “Piperazinyl(sulfon)amide derivatives of camphor as oxytocin antagonists” (MERCK & CO. INC., priority 1991, dated 1993).
Like-named read-outs stand apart in the source and are kept apart here. One block for each compound: values may come before it.

Biological target: T1, uterine OT receptors (Rattus norvegicus, UniProt P70536)
T1 construct: using a crude membrane preparation of uteri; from tissue; host or cells: uterus of DES-treated rats, crude membrane preparation
T1 sequence (P70536 1-388): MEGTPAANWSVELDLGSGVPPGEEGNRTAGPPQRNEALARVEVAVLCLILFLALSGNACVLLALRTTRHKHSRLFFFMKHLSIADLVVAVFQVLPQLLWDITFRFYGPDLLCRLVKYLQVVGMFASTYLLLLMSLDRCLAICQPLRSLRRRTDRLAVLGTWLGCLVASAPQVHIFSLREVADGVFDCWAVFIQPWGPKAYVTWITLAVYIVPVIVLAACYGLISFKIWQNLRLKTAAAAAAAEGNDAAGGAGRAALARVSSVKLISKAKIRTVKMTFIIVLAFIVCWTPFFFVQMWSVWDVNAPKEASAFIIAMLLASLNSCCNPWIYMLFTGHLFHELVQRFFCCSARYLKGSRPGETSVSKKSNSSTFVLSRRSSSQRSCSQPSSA
Experiment: [³H]Oxytocin radioligand binding assay, crude membrane preparation of uteri from DES-treated rats
Details: for inhibition at 1 µM: read-out: inhibition at 1,000 nM; for inhibition at 0.1 µM: read-out: inhibition at 100 nM

[1] = competition with 1 nM [³H]OT, 60 minutes, 22°C, concentration that inhibits 50% of OT, read-out: IC50

Protocol: The high affinity binding of [³H] Oxytocin (OT)([tyrosyl, 3,5-[³H]OT; 30-60 Ci/mmol; New England Nuclear. Boston, MA) to uterine OT receptors was based on an assay (Fuchs, A-R; Fuchs, F; Soloff, MS. 1985 J. Clin. Endocrinol. Metab. 60:37) using a crude membrane preparation of uteri taken from diethylstilbestrol dipropionate (DES)-treated (0.3 mg/kg, ip; 18-24) rats. Competition studies were conducted at equilibrium (60 minutes; 22°C) using 1 nM[³H]OT in the following assay buffer: 50 mM Tris-HCl, 5 mM MgCl₂, and 0.1% BSA, pH 7.4. Nonspecific binding (10% of the total binding) was determined using 1 mM unlabeled OT and the binding reaction was terminated by filtration through glass fiber filters using a cell harvester (model 7019, Skatron, Inc., Sterling, VA). IC₅₀ (the concentration of tested compound that inhibits 50% of OT) was reported, unless otherwise noted.

Compound: Cc1ccccc1N1CCN(S(=O)(=O)C[C@]23CC[C@H](C[C@@H]2NC(=O)[C@H](CCS(C)(=O)=O)NC(=O)Cc2c[nH]cn2)C3(C)C)CC1 [Example 37, 1-((7,7-Dimethyl-2-endo-(2s-(imidazol-4-ylacetyl-amino)-4-(methyl-sulfonyl)butyramido)-bicyclo(2.2.1)-heptan-1-yl)methanesulfonyl)-4-(2-methylphenyl)-piperazine]
- IC50: 1.2 nM

Compound: Cc1ccccc1N1CCN(S(=O)(=O)C[C@]23CC[C@H](C[C@@H]2NC(=O)OCc2ccccc2)C3(C)C)CC1 [Example 39, 1-((7,7-Dimethyl-2-endo-benzyloxycarbonylamino-bicyclo(2.2.1)heptan-1-yl)methanesulfonyl)-4-(2-methyl-phenyl)piperazine]
- inhibition at 1 µM: 54%

Compound: Cc1ccccc1N1CCN(S(=O)(=O)C[C@]23CC[C@H](C[C@@H]2N(C)C(=O)OCc2ccccc2)C3(C)C)CC1 [Example 40, 1-((7,7-Dimethyl-2-endo-methyl(benzyloxy-carbonyl)amino-bicyclo(2.2.1)-heptan-1-yl)methanesulfonyl)4-(2-methylphenyl)piperazine]
- inhibition at 1 µM: 35%

Compound: Cc1ccccc1N1CCN(S(=O)(=O)C[C@]23CC[C@H](C[C@@H]2N(C)C(=O)[C@H](CCS(C)(=O)=O)N(C)C)C3(C)C)CC1 [Example 42, 1-((7,7-Dimethyl-2-endo-methyl(2s-dimethylamino-4-(methylsulfonyl)-butanoyl)amino-bicyclo(2.2.1)heptan-1-yl)methanesulfonyl)-4-(2-methylphenyl)-piperazine]
- IC50 [1]: 9.2 nM

Compound: Cc1ccccc1N1CCN(S(=O)(=O)C[C@]23CC[C@H](C[C@@H]2NC(=O)C(C)c2c[nH]cn2)C3(C)C)CC1 (stereo partly drawn) [Example 44, 1-((7,7-Dimethyl-2-endo-(2-(4-imidazolyl)propanoyl)-amino-bicyclo-(2.2.1)heptan-1-yl)methanesulfonyl)-4-(2-methylphenyl)piperazine]
- IC50 [1]: 26 nM

Compound: CCOC(=O)CN1CCCC(C(=O)NCC(C)C2(O)CC3CCC2(CS(=O)(=O)N2CCN(c4ccccc4C)CC2)C3(C)C)C1 (stereo not drawn) [Example 50, 1-((7,7-Dimethyl-2-exo-hydroxy-2-endo-2-(1-(3-(1-ethoxycarbonyl-methyl)piperidinylcar-bonyl)amino)propyl-bicyclo(2.2.1)heptan-1-yl)methanesulfonyl)-4-(2-methylphenyl)piperazine]
- inhibition at 0.1 µM: 66%

Compound: CCOC(=O)CN1CCCC1C(=O)NCC(C)C1(O)CC2CCC1(CS(=O)(=O)N1CCN(c3ccccc3C)CC1)C2(C)C (stereo not drawn) [Example 52, 1-((7,7-Dimethyl-2-exo-hydroxy-2-endo-2-(1-(l-n-(ethoxycarboxymethyl)-prolyl)amino)propyl-bicyclo-(2.2.1)heptan-1-yl)methanesulfonyl)-4-(2-methylphenyl)piperazine]
- inhibition at 0.1 µM: 66%

Compound: [³H]OT [reference compound]
- Kd (saturation binding assay, uterus): 0.7 nM

More lines, now with the values ahead:

- IC50 [1]: 5.4 nM
Compound: Cc1ccccc1N1CCN(S(=O)(=O)C[C@]23CC[C@H](C[C@@H]2NC(=O)[C@H](CCS(C)(=O)=O)N(C)C)C3(C)C)CC1 [Example 38, 1-((7,7-Dimethyl-2-endo-(2s-(dimethylamino)-4-(methylsulfonyl)butyramido)-bicyclo(2.2.1)heptan-1-yl)methanesulfonyl)-4-(2-methyl-phenyl)piperazine]

- IC50 [1]: 6.3 nM
Compound: Cc1ccccc1N1CCN(S(=O)(=O)C[C@]23CC[C@H](C[C@@H]2N(C)C(=O)[C@@H](N)CCS(C)(=O)=O)C3(C)C)CC1 [Example 41, 1-((7,7-dimethyl-2-endo-methyl(2S-amino-4-(methylsulfonyl)butanoyl)amino-bicyclo(2.2.1)heptan-1-yl)methanesulfonyl)-4-(2-methylphenyl)-piperazine]

- IC50 [1]: 110 nM
Compound: Cc1ccccc1N1CCN(S(=O)(=O)C[C@]23CC[C@H](C[C@@H]2NC(=O)Cc2c[nH]cn2)C3(C)C)CC1 [Example 43]

- inhibition at 0.1 µM: 66%
Compound: CCOC(=O)CN1CCC(C(=O)NCC(C)C2(O)CC3CCC2(CS(=O)(=O)N2CCN(c4ccccc4C)CC2)C3(C)C)CC1 (stereo not drawn) [Example 57, 1-((7,7-Dimethyl-2-exo-hydroxy-2-endo-2-(1-(3-(1-ethoxycarbonyl-methyl)piperidinylcar-bonyl)amino)propyl-bicyclo(2.2.1)heptan-1-yl)methanesulfonyl)-4-(2-methylphenyl)piperazine]

- IC50 [1]: 35 nM
Compound: Two isomers of 1-((7,7-dimethyl-2-exo-hydroxy-2-endo-2-(1-(3-methoxycarbonyl)-2-pyrrolidinon-1-yl)propylbicyclo-(2.2.1)heptan-1-yl)methanesulfonyl)-4-(2-methylphenyl)piperazine [Example 26]
